For 11 molecules, % of control, IC50 and % of inhibition results are on record in ChEMBL document CHEMBL5465560, “Selectivity Literature for EUbOPEN Chemogenomic Library” (2024).

SMILES strings stand for the structures.

Experiment [1] has as its target TRAF2 and NCK-interacting protein kinase (Homo sapiens) (UniProt Q9UKE5). The following applies: at 10 µM.
Experiment [2] deals with Ribosomal protein S6 kinase alpha-1 (Homo sapiens, UniProt Q15418). Briefly: Selectivity interaction (KinomeScan (DiscoverX)) EUB0001079a RPS6KA1. Conditions: at 1 µM.
The target of experiment [3] is T1, Protein arginine N-methyltransferase 9 (Homo sapiens, UniProt Q6P2P2).
T1 sequence (Q6P2P2 whole entry): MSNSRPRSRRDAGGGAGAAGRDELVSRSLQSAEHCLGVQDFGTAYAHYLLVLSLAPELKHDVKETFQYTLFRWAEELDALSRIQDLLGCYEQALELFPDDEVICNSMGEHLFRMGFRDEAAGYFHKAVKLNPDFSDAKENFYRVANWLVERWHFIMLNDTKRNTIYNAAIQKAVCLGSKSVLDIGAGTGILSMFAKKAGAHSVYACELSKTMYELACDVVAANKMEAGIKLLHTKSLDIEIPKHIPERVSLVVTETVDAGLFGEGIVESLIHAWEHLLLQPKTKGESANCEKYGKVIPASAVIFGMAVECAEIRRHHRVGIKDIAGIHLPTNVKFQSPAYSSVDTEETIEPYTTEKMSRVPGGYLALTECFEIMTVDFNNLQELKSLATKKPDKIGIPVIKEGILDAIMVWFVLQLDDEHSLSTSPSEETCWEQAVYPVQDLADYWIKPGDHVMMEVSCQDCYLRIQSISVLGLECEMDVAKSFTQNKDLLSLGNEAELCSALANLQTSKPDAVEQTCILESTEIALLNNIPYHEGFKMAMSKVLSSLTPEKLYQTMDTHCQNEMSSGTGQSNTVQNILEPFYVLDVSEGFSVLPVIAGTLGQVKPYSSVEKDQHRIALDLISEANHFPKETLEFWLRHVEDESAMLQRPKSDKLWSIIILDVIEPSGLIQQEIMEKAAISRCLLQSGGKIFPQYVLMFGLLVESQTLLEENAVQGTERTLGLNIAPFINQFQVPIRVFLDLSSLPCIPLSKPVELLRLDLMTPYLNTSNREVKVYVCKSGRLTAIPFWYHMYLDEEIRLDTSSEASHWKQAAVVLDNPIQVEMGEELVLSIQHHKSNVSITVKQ
Briefly: Selectivity interaction (Scintillation proximity assays) EUB0000255b PRMT9.

In experiment [4] the target is Tyrosine-protein kinase receptor UFO (Homo sapiens) (UniProt P30530). Put plainly: Selectivity interaction (KinomeScan (DiscoverX)) EUB0000655a AXL. The following applies: at 10 µM.
Experiment [5] concerns Mast/stem cell growth factor receptor Kit (Homo sapiens), P10721 [A829P]. Briefly: (§1) Selectivity interaction (KinomeScan (DiscoverX)) EUB0000655a KIT. The following applies: at 10 µM.
In experiment [6] the test system is Mast/stem cell growth factor receptor Kit (Homo sapiens), P10721 [D816H]. The experiment is described as §1. The following applies: at 10 µM.
Experiment [7] deals with Mast/stem cell growth factor receptor Kit (Homo sapiens), P10721 [D816V]. The description is as §1. The following applies: at 10 µM.
The subject of experiment [8] is Mast/stem cell growth factor receptor Kit (Homo sapiens), P10721 [L576P]. The description is as §1. Conditions: at 10 µM.
Experiment [9] deals with Mast/stem cell growth factor receptor Kit (Homo sapiens), P10721 [V559D,T670I]. The experiment is described as §1. Conditions: at 10 µM.
The test system of experiment [10] is Mast/stem cell growth factor receptor Kit (Homo sapiens), P10721 [V559D,V654A]. The experiment is described as §1. Conditions: at 10 µM.
Experiment [11] has as its system Mast/stem cell growth factor receptor Kit (Homo sapiens), P10721 [V559D]. The experiment is described as §1. The following applies: at 10 µM.
In experiment [12] the target is Mast/stem cell growth factor receptor Kit (Homo sapiens, UniProt P10721). Described as §1. The following applies: at 10 µM.
The target of experiment [13] is Platelet-derived growth factor receptor alpha (Homo sapiens, UniProt P16234). Briefly: Selectivity interaction (KinomeScan (DiscoverX)) EUB0000655a PDGFRA. Conditions: at 10 µM.
In experiment [14] the target is Interleukin-1 receptor-associated kinase 1 (Homo sapiens) (UniProt P51617). Briefly: Selectivity interaction (KinomeScan (DiscoverX)) EUB0000695a IRAK1. Conditions: at 100 nM.
Experiment [15] concerns the target Transient receptor potential cation channel subfamily M member 6 (Homo sapiens) (UniProt Q9BX84). Put plainly: Selectivity interaction (KinomeScan (DiscoverX)) EUB0000045b TRPM6.
For experiment [16], the target named is Ephrin type-A receptor 5 (Homo sapiens) (UniProt P54756). Put plainly: Selectivity interaction (KinomeScan (DiscoverX)) EUB0000666a EPHA5. Conditions: at 10 µM.
For experiment [17], the target named is Cyclin-Y/Cyclin-dependent kinase 16 (Homo sapiens) (UniProt Q00536+Q8ND76). Put plainly: Selectivity interaction (LanthaScreen Eu Kinase Binding Assay) EUB0001632a CDK16. The class given is protein-complex assay. The following applies: at 10 µM.
Experiment [18] has as its target Calcium/calmodulin-dependent protein kinase type II subunit gamma (Homo sapiens) (UniProt Q13555). Briefly: Selectivity interaction (KinomeScan (DiscoverX)) EUB0000607a CAMK2G. The following applies: at 10 µM.
Experiment [19] addresses Calcium/calmodulin-dependent protein kinase type II subunit delta (Homo sapiens) (UniProt Q13557). Briefly: Selectivity interaction (KinomeScan (DiscoverX)) EUB0000595a CAMK2D. The following applies: at 10 µM.
Experiment [20] deals with STE20-like serine/threonine-protein kinase (Homo sapiens, UniProt Q9H2G2). Put plainly: Selectivity interaction (ActivX KiNativ screen (ex vivo kinase selectivity in human PBMCs)) EUB0001619a SLK. The class given is cell-based. Conditions: PBMC, at 1 µM.

Transient receptor potential cation channel subfamily M member 6 (Homo sapiens), sequence (Q9BX84 whole entry): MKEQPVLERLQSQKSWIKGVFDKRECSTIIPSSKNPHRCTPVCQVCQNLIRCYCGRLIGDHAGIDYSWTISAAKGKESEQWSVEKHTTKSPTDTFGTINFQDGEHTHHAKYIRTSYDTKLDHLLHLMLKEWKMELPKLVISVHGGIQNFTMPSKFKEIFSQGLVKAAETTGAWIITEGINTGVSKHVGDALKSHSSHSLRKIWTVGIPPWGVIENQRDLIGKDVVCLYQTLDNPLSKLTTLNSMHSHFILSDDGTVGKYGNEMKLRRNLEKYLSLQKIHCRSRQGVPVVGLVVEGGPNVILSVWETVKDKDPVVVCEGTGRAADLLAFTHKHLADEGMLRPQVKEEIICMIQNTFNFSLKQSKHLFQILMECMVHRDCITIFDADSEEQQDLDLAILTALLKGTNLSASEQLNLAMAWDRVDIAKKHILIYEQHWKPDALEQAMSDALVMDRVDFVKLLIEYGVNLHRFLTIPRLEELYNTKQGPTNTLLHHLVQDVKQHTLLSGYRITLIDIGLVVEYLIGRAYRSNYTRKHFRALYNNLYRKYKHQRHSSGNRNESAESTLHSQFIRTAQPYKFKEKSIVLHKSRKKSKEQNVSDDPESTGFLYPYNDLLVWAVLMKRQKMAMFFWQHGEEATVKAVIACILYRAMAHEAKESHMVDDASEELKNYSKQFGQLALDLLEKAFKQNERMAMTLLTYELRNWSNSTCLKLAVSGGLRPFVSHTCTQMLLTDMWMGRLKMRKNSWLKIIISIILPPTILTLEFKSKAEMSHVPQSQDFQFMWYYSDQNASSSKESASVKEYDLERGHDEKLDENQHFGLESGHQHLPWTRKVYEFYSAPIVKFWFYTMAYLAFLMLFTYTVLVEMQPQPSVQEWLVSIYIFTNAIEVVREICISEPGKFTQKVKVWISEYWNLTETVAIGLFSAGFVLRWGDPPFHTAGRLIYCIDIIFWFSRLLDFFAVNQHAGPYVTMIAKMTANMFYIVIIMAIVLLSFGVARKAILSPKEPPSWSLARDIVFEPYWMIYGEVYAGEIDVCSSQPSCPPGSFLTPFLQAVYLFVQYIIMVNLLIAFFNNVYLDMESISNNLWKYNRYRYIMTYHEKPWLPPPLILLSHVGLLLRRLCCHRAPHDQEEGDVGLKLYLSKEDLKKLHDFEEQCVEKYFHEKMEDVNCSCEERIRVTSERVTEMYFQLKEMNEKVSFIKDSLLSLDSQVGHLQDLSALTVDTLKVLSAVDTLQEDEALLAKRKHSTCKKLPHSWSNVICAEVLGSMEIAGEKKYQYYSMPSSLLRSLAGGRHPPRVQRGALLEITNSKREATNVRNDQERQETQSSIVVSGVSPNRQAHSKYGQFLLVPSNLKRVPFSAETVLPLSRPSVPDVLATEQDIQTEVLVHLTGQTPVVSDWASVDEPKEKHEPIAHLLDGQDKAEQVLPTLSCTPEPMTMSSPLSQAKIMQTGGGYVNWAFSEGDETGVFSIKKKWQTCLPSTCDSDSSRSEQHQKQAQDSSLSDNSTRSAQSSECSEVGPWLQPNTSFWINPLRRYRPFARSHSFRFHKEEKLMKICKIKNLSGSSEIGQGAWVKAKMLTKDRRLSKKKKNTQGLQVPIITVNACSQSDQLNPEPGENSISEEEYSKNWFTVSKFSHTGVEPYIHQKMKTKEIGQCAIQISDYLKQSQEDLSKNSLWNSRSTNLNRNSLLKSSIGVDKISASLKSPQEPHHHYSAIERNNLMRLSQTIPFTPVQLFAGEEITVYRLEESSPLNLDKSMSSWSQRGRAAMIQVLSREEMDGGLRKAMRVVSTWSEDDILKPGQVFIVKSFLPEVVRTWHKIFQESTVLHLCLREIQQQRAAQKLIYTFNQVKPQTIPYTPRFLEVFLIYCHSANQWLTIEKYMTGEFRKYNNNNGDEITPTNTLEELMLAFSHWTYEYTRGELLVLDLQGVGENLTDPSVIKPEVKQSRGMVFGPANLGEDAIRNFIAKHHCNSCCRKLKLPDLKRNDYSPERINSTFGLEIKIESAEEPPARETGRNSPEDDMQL
Calcium/calmodulin-dependent protein kinase type II subunit gamma (Homo sapiens), sequence (Q13555 whole entry): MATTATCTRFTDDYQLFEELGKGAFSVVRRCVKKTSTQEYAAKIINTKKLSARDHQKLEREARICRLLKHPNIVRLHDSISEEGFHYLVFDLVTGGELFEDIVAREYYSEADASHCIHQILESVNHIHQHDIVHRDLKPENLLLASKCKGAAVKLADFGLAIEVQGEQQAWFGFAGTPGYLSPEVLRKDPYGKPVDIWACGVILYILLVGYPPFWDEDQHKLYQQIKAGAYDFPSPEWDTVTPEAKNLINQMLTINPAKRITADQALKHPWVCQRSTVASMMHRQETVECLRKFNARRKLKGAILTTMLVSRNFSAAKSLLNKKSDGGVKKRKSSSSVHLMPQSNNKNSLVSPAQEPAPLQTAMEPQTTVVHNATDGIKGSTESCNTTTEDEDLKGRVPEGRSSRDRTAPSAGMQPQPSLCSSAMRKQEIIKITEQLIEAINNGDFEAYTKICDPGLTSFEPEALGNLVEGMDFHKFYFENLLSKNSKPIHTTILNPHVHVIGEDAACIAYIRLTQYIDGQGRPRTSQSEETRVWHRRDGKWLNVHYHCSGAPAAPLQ
Mast/stem cell growth factor receptor Kit (Homo sapiens), P10721 [V559D,T670I], sequence (P10721 whole entry V559D/T670I): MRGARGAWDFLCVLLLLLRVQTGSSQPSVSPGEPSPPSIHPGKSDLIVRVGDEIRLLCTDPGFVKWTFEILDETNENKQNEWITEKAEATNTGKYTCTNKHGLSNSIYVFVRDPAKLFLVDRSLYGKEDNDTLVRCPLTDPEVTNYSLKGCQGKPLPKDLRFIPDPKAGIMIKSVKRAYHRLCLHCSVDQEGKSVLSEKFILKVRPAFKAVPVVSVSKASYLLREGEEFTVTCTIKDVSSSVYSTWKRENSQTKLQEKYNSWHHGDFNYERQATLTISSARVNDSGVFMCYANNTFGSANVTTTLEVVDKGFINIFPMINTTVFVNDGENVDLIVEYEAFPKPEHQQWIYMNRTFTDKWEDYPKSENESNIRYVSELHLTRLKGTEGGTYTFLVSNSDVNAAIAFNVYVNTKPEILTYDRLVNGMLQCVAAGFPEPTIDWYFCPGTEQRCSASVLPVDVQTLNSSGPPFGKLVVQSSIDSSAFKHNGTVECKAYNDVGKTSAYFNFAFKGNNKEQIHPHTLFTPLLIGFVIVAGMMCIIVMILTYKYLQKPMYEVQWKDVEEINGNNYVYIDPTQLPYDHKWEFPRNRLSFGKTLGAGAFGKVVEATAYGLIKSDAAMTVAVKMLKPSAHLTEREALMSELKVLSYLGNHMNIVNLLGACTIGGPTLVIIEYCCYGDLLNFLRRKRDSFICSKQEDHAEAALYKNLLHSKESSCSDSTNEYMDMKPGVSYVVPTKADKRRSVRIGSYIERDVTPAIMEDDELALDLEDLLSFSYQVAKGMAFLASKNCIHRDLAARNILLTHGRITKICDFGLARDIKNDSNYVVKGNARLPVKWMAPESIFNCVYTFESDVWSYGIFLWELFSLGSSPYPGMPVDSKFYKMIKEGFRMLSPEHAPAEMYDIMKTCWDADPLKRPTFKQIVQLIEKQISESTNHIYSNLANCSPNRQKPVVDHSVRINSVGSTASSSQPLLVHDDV
TRAF2 and NCK-interacting protein kinase (Homo sapiens), sequence (Q9UKE5 whole entry, looked up): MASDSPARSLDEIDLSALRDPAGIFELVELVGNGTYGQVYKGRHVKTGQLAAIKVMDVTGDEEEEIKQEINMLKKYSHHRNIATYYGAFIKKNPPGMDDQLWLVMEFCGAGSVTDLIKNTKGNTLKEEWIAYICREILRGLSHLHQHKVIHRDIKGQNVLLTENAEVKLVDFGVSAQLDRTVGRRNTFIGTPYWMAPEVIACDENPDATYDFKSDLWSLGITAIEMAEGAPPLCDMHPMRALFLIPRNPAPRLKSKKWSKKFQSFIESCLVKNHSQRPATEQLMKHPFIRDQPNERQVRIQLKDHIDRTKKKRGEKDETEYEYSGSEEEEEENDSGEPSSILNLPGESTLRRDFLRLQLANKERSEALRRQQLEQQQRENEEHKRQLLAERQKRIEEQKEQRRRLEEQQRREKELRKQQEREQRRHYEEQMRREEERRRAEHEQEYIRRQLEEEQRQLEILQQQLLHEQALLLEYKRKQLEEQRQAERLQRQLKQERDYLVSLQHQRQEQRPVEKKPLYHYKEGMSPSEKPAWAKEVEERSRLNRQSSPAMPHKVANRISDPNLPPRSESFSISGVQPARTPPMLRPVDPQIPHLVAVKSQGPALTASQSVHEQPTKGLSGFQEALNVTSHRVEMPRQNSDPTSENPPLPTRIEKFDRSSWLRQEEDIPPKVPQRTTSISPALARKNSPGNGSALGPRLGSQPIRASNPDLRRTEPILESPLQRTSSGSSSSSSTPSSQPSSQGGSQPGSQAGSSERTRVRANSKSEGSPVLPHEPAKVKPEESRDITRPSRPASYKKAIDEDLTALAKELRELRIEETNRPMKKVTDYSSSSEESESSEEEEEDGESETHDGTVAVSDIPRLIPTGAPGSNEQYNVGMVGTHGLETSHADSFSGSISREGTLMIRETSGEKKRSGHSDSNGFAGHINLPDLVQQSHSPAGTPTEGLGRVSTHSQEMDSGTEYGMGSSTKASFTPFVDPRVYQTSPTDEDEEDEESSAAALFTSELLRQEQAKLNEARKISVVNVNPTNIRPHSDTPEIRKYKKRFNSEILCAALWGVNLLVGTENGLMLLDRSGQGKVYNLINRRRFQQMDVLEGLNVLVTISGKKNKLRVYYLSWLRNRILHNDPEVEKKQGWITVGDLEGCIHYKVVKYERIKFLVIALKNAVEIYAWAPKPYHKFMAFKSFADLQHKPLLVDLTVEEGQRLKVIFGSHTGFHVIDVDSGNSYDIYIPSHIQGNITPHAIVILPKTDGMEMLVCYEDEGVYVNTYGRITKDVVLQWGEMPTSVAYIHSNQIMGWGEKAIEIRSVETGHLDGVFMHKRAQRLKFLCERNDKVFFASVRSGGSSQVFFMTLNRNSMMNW

Regarding `CCN(CC)CCCCNc1ncc2cc(-c3cc(OC)cc(OC)c3)c(NC(=O)NC(C)(C)C)nc2n1`, the % of control in experiment [1] came to 100%.
As to `Nc1cnc(N2CCc3cc(S(=O)(=O)Nc4c(F)cc(Cl)cc4F)cc(N4CCCC4=O)c32)nc1` [TP-020n], the % of control in experiment [2] came out at 93%.
By IC50 is commonly meant the concentration at which inhibition is half-maximal. Higher therefore signals a need for much substance. In turn, `COCCN1CCC(c2cc(CN(C)C(=O)c3cccc(Oc4ccccc4)c3)ccn2)CC1` registered an IC50 in experiment [3] of over 10 µM.
Turning to `CN(C)CCOc1ccc(-c2nc(-c3ccncc3)c(-c3ccc4c(c3)CC/C4=N\O)[nH]2)cc1`, the % of control in experiment [4] turned out to be 78%; in [5] it was 86%; in experiment [6], 100%; in [7], 79%; in experiment [8], 58%; in [9], 93%. The % of control in experiment [10] is 93%; in experiment [11] it was 65%; in experiment [12], 75%; in experiment [13] it was 100%.
Take `Cc1cc(F)c(C(=O)Nc2cccc(-c3nncn3C(C)C)n2)cc1-n1cnc(C2CC2)c1`: the % of control in experiment [14] came to 96%.
As for `C=CC(=O)Nc1cc(-n2c(=O)ccc3cnc4ccc(-c5ccc(NS(C)(=O)=O)cc5)cc4c32)ccc1C`, the % of control in experiment [15] (at 1 µM) and in experiment [15] (at 10 µM) was 100% in each case.
Regarding `O=C(NOC[C@H](O)CO)c1ccc(F)c(F)c1Nc1ccc(I)cc1F`, the % of control in [16] was 96%.
Turning to `Cn1cc(-n2cnc3c(NCc4nc5cc(Cl)c(Cl)cc5[nH]4)nc(N4CCOCC4)nc32)cn1`, in [17], the % of inhibition worked out at 15%.
Regarding `CNC(=O)Nc1ccc(-c2nc(N3CC4CCC(C3)O4)c3cnn(C4CCC5(CC4)OCCO5)c3n2)cc1`, the % of control in [18] was 100%.
Take `COCC(=O)NC/C=C/c1ccc2ncnc(Nc3ccc(Oc4ccc(C)nc4)c(C)c3)c2c1` [CP-724714]: the % of control in [19] turned out to be 100%.
On to `N#Cc1cccc(-c2c[nH]c3ncnc(N4CCOCC4)c23)c1`, for which the % of inhibition in experiment [20] was found to be 66%.
